From PMC6271944 (Molecules, 2014)
pIC50: −log10 of the molar value.

Assays:
CYP2C9 = target: T1, CYP2C9 (Homo sapiens, UniProt P11712); test: CYP inhibition in human liver microsomes, substrate cocktail, LC-MS/MS (diclofenac); assay type: in vitro ADME; details: metabolite 4-hydroxydiclofenac, read-out: IC50 for HLM, CYP2C9
T1 construct: Pooled human liver microsomes (HLM, LOT 32556) were purchased from BD Gentest Corporation; tissue BD Gentest Corporation LOT 32556; host or cells: pooled human liver microsomes
Description: (§1) Positive controls (furafyline for CYP1A2, montelukast for CYP2C8, sulfaphenazole for CYP2C9, S-(+)-N-3-benzylnirvanol for CYP2C19, quinidine for CYP2D6, ketoconazole for CYP3A4) and specific substrates (phenacetin for CYP1A2, paclitaxel for CYP2C8, diclofenac for CYP2C9, S-mephenytoin for CYP2C19, dextromethorphan for CYP2D6, midazolam for CYP3A4) are consistent with our previous papers. The substrates were used at concentrations approximately equal to their respective Michaelis-Menten constant (Km) values: 10 μM phenacetin, 5 μM paclitaxel, 5 μM diclofenac, 200 μM S-mephenytoin, 5 μM dextromethorphan, and 2 μM midazolam. NADP^+ was added after a 15 min preincubation of all other components at 37 °C. After a given incubation time (30 min), the reactions were terminated by addition of 60 μL ice-cold acetonitrile containing gemfibrozil and buspirone as internal standards. Incubation samples were stored at −80 °C until used in liquid chromatography-tandem mass spectrometry (LC-MS/MS) analysis. The mixture was centrifuged at 3,500 rpm for 5 min. The supernatant was mixed with equal volume of a 1:1 mixture of methanol and water and 20 μL of the final mixture was used for LC-MS/ MS analysis. […]
(§2) The CYP inhibition potential were evaluated by measuring the formation of one or more metabolites of the test substrates. […]

CYP2C7 = target: T2, CYP2C7 (Rattus norvegicus, UniProt P05179); test: CYP inhibition in rat liver microsomes, substrate cocktail, LC-MS/MS (paclitaxel); assay type: in vitro ADME; details: 95% CI in brackets, read-out: IC50 for RLM, CYP2C7 (table row CYP2C8)
T2 construct: Pooled rat liver microsomes were prepared from three male Sprague-Dawley rats; from tissue; host or cells: pooled liver microsomes of three male Sprague-Dawley rats, prepared at HD Biosciences Co
T2 sequence (P05179 1-490): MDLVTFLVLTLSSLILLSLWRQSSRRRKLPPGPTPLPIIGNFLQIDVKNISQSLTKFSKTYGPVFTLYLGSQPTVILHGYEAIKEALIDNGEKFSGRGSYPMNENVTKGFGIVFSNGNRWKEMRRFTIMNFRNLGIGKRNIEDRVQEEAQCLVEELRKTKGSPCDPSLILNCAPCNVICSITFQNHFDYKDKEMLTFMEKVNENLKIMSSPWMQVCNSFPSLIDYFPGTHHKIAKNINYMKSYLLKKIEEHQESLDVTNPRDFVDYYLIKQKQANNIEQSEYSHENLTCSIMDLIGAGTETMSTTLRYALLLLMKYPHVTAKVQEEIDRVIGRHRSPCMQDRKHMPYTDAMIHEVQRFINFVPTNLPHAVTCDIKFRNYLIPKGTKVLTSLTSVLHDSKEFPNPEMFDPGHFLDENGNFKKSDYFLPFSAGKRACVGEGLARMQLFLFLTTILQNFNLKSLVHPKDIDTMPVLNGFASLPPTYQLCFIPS
Description: as §1, §2

CYP3A2 = target: T3, CYP3A2 (Rattus norvegicus, UniProt P05183); test: CYP inhibition in rat liver microsomes, substrate cocktail, LC-MS/MS (midazolam); assay type: in vitro ADME; details: pH 7.4, probe midazolam 2 μM, read-out: IC50 for RLM, CYP3A2 (table row CYP3A4)
T3 sequence (P05183 1-504): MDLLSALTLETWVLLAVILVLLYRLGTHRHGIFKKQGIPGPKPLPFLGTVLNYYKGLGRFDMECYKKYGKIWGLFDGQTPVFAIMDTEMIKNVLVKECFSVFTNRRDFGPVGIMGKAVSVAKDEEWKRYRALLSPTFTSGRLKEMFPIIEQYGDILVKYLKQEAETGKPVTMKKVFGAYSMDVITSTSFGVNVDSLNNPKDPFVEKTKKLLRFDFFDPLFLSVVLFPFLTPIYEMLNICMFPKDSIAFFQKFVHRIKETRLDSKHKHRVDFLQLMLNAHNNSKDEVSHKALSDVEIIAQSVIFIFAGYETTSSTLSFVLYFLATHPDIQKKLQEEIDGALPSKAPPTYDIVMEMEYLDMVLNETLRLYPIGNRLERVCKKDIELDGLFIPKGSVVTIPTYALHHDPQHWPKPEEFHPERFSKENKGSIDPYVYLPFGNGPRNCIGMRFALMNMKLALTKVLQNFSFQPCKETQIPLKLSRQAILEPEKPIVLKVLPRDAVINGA
Description: as §1, §2

UGT2B7 = system: UGT2B7; set-up: dose or concentration left out as unconfirmed; details: cited from earlier work

T1 sequence (P11712 whole entry): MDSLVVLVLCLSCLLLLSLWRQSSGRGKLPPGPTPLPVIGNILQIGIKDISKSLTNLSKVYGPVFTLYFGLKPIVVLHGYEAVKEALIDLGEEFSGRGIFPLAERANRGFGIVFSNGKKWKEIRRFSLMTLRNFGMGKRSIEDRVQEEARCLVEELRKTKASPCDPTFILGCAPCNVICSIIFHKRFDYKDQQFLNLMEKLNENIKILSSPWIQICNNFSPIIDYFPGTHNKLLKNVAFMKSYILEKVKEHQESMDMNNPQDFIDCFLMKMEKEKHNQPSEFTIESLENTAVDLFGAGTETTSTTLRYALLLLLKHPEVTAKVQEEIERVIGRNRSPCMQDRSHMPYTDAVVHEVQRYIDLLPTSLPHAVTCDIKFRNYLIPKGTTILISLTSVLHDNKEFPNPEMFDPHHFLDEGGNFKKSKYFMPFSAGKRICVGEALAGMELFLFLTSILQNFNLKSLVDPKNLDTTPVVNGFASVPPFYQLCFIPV

O=C(O)[C@H]1O[C@@H](Oc2cc3oc(-c4ccc(O)cc4)cc(=O)c3c(O)c2O)[C@H](O)[C@@H](O)[C@@H]1O [scutellarin, Scutellarin]
pIC50 (CYP2C9): < 4.00
pIC50 (CYP2C7): 4.20
IC50 at 30 min (CYP3A2): > 100 µM
inhibition towards the activity of UGT2B7 (UGT2B7): 73.8%
